This experiment relates to NMDARs. Kind of experiment: NMDAR currents in cultured cortical neurons of WT and TRPM2-KO mice (whole cell recording). It counts as cell-based, mouse. How it is done:
FIGS. 4O and 4P show the effects of stausporine on NMDAR currents recorded from cortical neurons cultured for 14 days. FIG. 4O show representative NMDAR currents elicited at −80 mV by 10 μM NMDA in WT and TRPM2-KO (gM2KO) neurons treated with or without Stausporine at 1 μM for overnight. FIG. 4P show the average current amplitude (ns, p>0.05; **, p<0.01; ANOVA, Bonferroni's test; mean±SEM, n=11, 10, 10, 12 neurons from 2 mice respectively).
FIG. 4S show representative NMDAR currents elicited by NMDA in WT and TRPM2-KO neurons treated with or without endosidin2 at 1 μM for overnight.
FIGS. 5I-5K show the effects of TAT-EE3 on PKC induced changes of NMDAR currents recorded in cortical neurons of WT and TRPM2-KO. Neurons were incubated with 10 μM TAT-SC or TAT-EE3 for overnight before current recording. FIG. 5I show representative NMDAR currents elicited by 10 μM NMDA at −80 mV before and after PMA (1 μM) perfusion for 20 s. TAT-SC or TAT-EE3 10 μM was included in the pipette solution for current recording.
FIGS. 6A and 6B show the effects of TAT-EE3 on NMDAR currents in WT and gM2KO cortical neurons cultured for 14 days. […] TAT-SC or TAT-EE3 10 μM was included in the pipette solution during current recording.
Mice pups at P0 were euthanized based on animal protocol. Whole brain was dissected out immediately and immersed in ice-cold Hank's Balanced Salt Solution (HBSS). Meninges were removed thoroughly, and tissue of different brain areas was taken based on purposes. Brain tissue was cut into small pieces and digested with 0.25% trypsin (Thermal Fisher Scientific, 15090-046) in HBSS at 37° C. for 20 min. Digestion solution was quickly removed, and tissue pellets are washed with Neurobasal® Medium (Thermal Fisher Scientific, 21103-049) for 3 times. Cells were resuspended with appropriate amount of Neurobasal® Medium supplemented with 2% B27® supplement (Thermal Fisher Scientific, 17504-044), 3% horse serum (Thermal Fisher Scientific, 16050114), 0.25% L-glutamine (Thermal Fisher Scientific, 25030-081) and 1% penicillin/streptomycin (Thermal Fisher Scientific, 15140-122). Isolated cells were counted and plated on coverslips pre-coated with poly-L-lysine (Sigma-Aldrich, P4707) at a density about 500×10^3 cells/cm2 for OGD and H2O2 treatment, and 100×10^3 cells/cm2 for current recording. Cytosine arabinoside (Sigma-Aldrich, C1768) was added to maintain a concentration at 1 μM to inhibit the proliferation of non-neuronal cells. 24 h after plating, culture medium was changed to Neurobasal® Medium supplemented with 2% B27® supplement, 0.25% L-glutamine and 1% penicillin/streptomycin. The concentration of Cytosine arabinoside (araC) was increased to 2 μM. Medium was changed every 3 days. OGD and H2O2 treatment was conducted at 7th day of culture, and current recording was conducted at 7th, 10th and 14th day of culture.
Whole cell currents were recorded using an Axopatch 200B amplifier. Data were digitized at 10 or 20 kHz and digitally filtered offline at 1 kHz. Patch electrodes were pulled from borosilicate glass and fire-polished to a resistance of ˜3 MΩ when filled with internal solutions. Series resistance (Rs) was compensated up to 90% to reduce series resistance errors to <5 mV. Cells in which Rs was >10 MΩ were discarded (Du, J., Xie, J., and Yue, L. (2009). Modulation of TRPM2 by acidic pH and the underlying mechanisms for pH sensitivity. J Gen Physiol 134, 471-88).
For heterologous expression, transfected HEK-293 cells were identified by GFP fluorescence. TRPM2 current recording in transfected HEK-293T cells was performed as we previously reported (Du, J., Xie, J., and Yue, L. (2009). Intracellular calcium activates TRPM2 and its alternative spliced isoforms. Proceedings of the National Academy of Sciences 107, 7239-44; Du, J., Xie, J., and Yue, L. (2009). Modulation of TRPM2 by acidic pH and the underlying mechanisms for pH sensitivity. J Gen Physiol 134, 471-88). […]

[1] abbreviates: WT neurons incubated with 10 μM peptide overnight, PMA 1 μM 20 s.

With “TAT-EE3: membrane permeable disrupting peptide, sequence YGRKKRRQRRREEDTDSSEEMLALAEE (SEQ ID NO: 4)”, where the note is “10 μM peptide overnight and in pipette, neurons cultured 14 days”, the “NMDAR currents in neurons from TRPM2-KO mice” value is “not from TRPM2-KO mice”. Besides, under “10 μM peptide overnight and in pipette, neurons cultured 14 days, 10 μM NMDA, -80 mV”, the “NMDAR currents in neurons from WT mice” value is “efficiently reduced”. Further, under setting [1], the “NMDAR current amplitude before and after PMA perfusion” value was “much smaller”; the “increase of NMDAR current amplitude induced by PMA” value is given as “significantly smaller than that in neurons incubated with TAT-SC”. Further, the “PMA-induced changes of NMDAR currents, TAT-SC vs TAT-EE3” value (neurons from TRPM2-KO mice, 10 μM peptide overnight) is given as “no difference”.

The values are drawn from patent US20250235501A1, “Methods and Compositions for Treating or Preventing Neurological Injury or Neurological Disorders” (University of Connecticut, priority 2024, published 2025).
